Measurements published in the supplement of paper PMC10307832.

Legend:
Test in all cases: relative viability (nuclei count vs DMSO), 5 days (fraction); higher = more cells survive
[1] = compound: Cc1ccc(-n2nc(C(C)(C)C)cc2NC(=O)Nc2ccc(OCCN3CCOCC3)c3ccccc23)cc1 [Doramapimod] + N=C(N)NC(=N)NCCc1ccccc1 [Phenformin] (partner 250 µM)
Procedure, shortened: (§1)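 After 5 days of treatment, lung cancer cells in 1536-well plates were fixed and stained in a single step (final 0.05% Triton X-100, 1% formaldehyde, 1 ug/ml Hoechst) and their nuclei counted on 4× images. Treatment had been applied by pin tool the day after seeding as one drug alone or as a fixed anchor-drug dose with five library-drug doses (not always all listed) in √10 steps. Relative viability is the nuclei count of treated wells divided by that of vehicle wells, and values are medians of duplicate plates.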

[2] = compound: Cc1ccc(-n2nc(C(C)(C)C)cc2NC(=O)Nc2ccc(OCCN3CCOCC3)c3ccccc23)cc1 [Doramapimod] + CC(=O)Nc1cccc(-n2c(=O)n(C3CC3)c(=O)c3c(Nc4ccc(I)cc4F)n(C)c(=O)c(C)c32)c1 [Trametinib] (partner 0.02 µM)
Procedure, shortened: as §1

[3] = compound: C1=CC=C2C(=C1)C=CC(=C2SSC3=C(C=CC4=CC=CC=C43)O)O [IPA-3] + COc1cccc2cc(-c3nc([C@H]4CC[C@H](C(=O)O)CC4)n4ncnc(N)c34)[nH]c12 [OSI-027] (partner 0.5 µM)
Procedure, shortened: as §1

[4] = compound: C1=CC=C2C(=C1)C=CC(=C2SSC3=C(C=CC4=CC=CC=C43)O)O [IPA-3] + Cc1nc(Nc2ncc(C(=O)Nc3c(C)cccc3Cl)s2)cc(N2CCN(CCO)CC2)n1 [Dasatinib] (partner 0.075 µM)
Procedure, shortened: as §1

| Cell Line | relative viability ([1]; first compound 0.02 µM) | relative viability ([1]; first compound 0.06325 µM) | relative viability ([1]; first compound 0.2 µM) | relative viability ([1]; first compound 0.6325 µM) | relative viability ([1]; first compound 2 µM) | relative viability ([2]; first compound 0.02 µM) | relative viability ([2]; first compound 0.06325 µM) | relative viability ([2]; first compound 0.2 µM) | relative viability ([2]; first compound 0.6325 µM) | relative viability ([2]; first compound 2 µM) | relative viability ([3]; first compound 0.2 µM) | relative viability ([3]; first compound 0.6325 µM) | relative viability ([3]; first compound 2 µM) | relative viability ([3]; first compound 6.325 µM) | relative viability ([3]; first compound 20 µM) | relative viability ([4]; first compound 0.2 µM) | relative viability ([4]; first compound 0.6325 µM) | relative viability ([4]; first compound 2 µM) | relative viability ([4]; first compound 6.325 µM) | relative viability ([4]; first compound 20 µM) |
| --- | --- | --- | --- | --- | --- | --- | --- | --- | --- | --- | --- | --- | --- | --- | --- | --- | --- | --- | --- | --- |
| NCI-H2085 | 0.758 | 0.623 | 0.592 | 0.705 | 0.661 | 0.496 | 0.494 | 0.502 | 0.471 | 0.494 | 0.982 | 0.665 | 0.742 | 0.9 | 0.817 | 0.224 | 0.256 | 0.267 | 0.23 | 0.266 |
| NCI-H2170 | 0.418 | 0.403 | 0.474 | 0.368 | 0.426 | 0.854 | 1.02 | 0.934 | 0.981 | 0.825 | 0.733 | 0.691 | 0.721 | 0.672 | 0.677 | 0.573 | 0.339 | 0.467 | 0.614 | 0.613 |
| HCC-78 | 0.704 | 0.819 | 0.743 | 0.813 | 0.543 | 0.802 | 0.724 | 0.767 | 0.763 | 0.819 | 0.419 | 0.407 | 0.641 | 0.382 | 0.353 | 0.43 | 0.359 | 0.462 | 0.439 | 0.427 |
| NCI-H1395 | 0.483 | 0.474 | 0.44 | 0.485 | 0.365 | 0.999 | 0.967 | 1.05 | 1.08 | 0.946 | 0.641 | 0.705 | 0.547 | 0.621 | 0.692 | 0.408 | 0.42 | 0.385 | 0.44 | 0.466 |
| NCI-H2126 | 0.527 | 0.526 | 0.505 | 0.496 | 0.489 | 0.551 | 0.546 | 0.571 | 0.637 | 0.524 | 0.727 | 0.748 | 0.666 | 0.688 | 0.75 | 0.709 | 0.58 | 0.68 | 0.633 | 0.545 |
| H3255 | 0.356 | 0.345 | 0.391 | 0.366 | 0.411 | 0.581 | 0.522 | 0.626 | – | 0.522 | 0.609 | 0.566 | 0.677 | 0.508 | 0.62 | 0.387 | 0.249 | 0.428 | 0.335 | 0.284 |
| HCC-15 | 0.481 | 0.467 | 0.478 | – | 0.365 | 0.341 | 0.306 | 0.331 | 0.293 | 0.292 | 0.765 | 0.685 | 0.636 | 0.688 | 0.718 | 0.682 | 0.605 | 0.548 | 0.596 | 0.471 |
| NCI-H661 | 0.297 | 0.272 | 0.274 | 0.289 | 0.308 | 0.642 | 0.58 | 0.598 | 0.732 | 0.512 | 0.894 | 0.726 | 0.716 | 0.356 | 0.673 | 1.06 | 0.871 | 0.656 | 0.867 | 0.787 |
